In patent US7462600B2, “Macrolides” (Pfizer Inc, priority 2004, dated 2008):
Converted amounts (≈) assume the structure as drawn.

Legend:
Type in all cases: cell-based
[1] = tested on: Haemophilus influenzae 1218; test: MIC, microtiter broth dilution (NCCLS M100-S14), H. influenzae 1218 (susceptible); conditions: Haemophilus influenzae 1218
Outline: (§1)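 Steps: dissolve compound in DMSO to 40 mg/ml stock; dilute in broth across microtiter trays; inoculate strains; record MIC per NCCLS M100-S14.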

[2] = tested on: Streptococcus pneumoniae 1016; test: MIC, microtiter broth dilution (NCCLS M100-S14), S. pneumoniae 1016 (susceptible); conditions: Streptococcus pneumoniae 1016
Outline: as §1

[3] = tested on: Streptococcus pneumoniae 1175; conditions: Streptococcus pneumoniae 1175; microtiter broth dilution
Outline: as §1

[4] = tested on: Streptococcus pneumoniae 1095; conditions: Streptococcus pneumoniae 1095; microtiter broth dilution
Outline: as §1

[5] = tested on: Streptococcus pyogenes 1079; test: MIC, microtiter broth dilution (NCCLS M100-S14), S. pyogenes 1079 (ermB); conditions: Streptococcus pyogenes 1079
Outline: as §1

Row | Compound | MIC H. influenzae 1218 [1] | MIC S. pneumo. 1016 [2] | MIC S. pneumo. 1175 [3] | MIC S. pneumo. 1095 [4] | MIC S. pyogenes 1079 [5]
1 | CCC1OC(=O)C(C)C(=O)C(C)C(OC2OC(C)CC(N(C)C)C2O)C(C)(OC)CC(C)C(=O)C(C)C2N(C3CN(Cc4cccnc4)C3)C(=O)OC12C (centres unmarked) [Example 1.03, (pyridin-3-yl)methyl] | 0.5 µg/mL (≈ 0.659 µM) | <0.06 µg/mL | 2 µg/mL (≈ 2.64 µM) | <0.06 µg/mL | >64.00 µg/mL
2 | CCC1OC(=O)C(C)C(=O)C(C)C(OC2OC(C)CC(N(C)C)C2O)C(C)(OC)CC(C)C(=O)C(C)C2N(C3CN(Cc4ccncc4)C3)C(=O)OC12C (centres unmarked) [Example 1.04, (pyridin-4-yl)methyl] | 0.25 µg/mL (≈ 0.329 µM) | <0.06 µg/mL | 0.5 µg/mL (≈ 0.659 µM) | 0.12 µg/mL (≈ 0.158 µM) | >64.00 µg/mL
3 | CCC1OC(=O)C(C)C(=O)C(C)C(OC2OC(C)CC(N(C)C)C2O)C(C)(OC)CC(C)C(=O)C(C)C2N(C3CN(Cc4cccc5cccnc45)C3)C(=O)OC12C (centres unmarked) [Example 1.05, (quinolin-8-yl)methyl] | 0.25 µg/mL (≈ 0.309 µM) | <0.06 µg/mL | 0.12 µg/mL (≈ 0.148 µM) | <0.06 µg/mL | 64 µg/mL (≈ 79.1 µM)
4 | CCC1OC(=O)C(C)C(=O)C(C)C(OC2OC(C)CC(N(C)C)C2O)C(C)(OC)CC(C)C(=O)C(C)C2N(C3CN(Cc4cccc5ncccc45)C3)C(=O)OC12C (centres unmarked) [Example 1.06, 3-descladinosyl-11,12-dideoxy-6-O-methyl-3-oxo-12,11-(oxycarbonyl-(1-((quinolin-5-yl)-methyl)-azetidin-3-yl)-imino)-erythromycin A] | 1 µg/mL (≈ 1.24 µM) | <0.06 µg/mL | <0.06 µg/mL | <0.06 µg/mL | 4 µg/mL (≈ 4.94 µM)
5 | CCC1OC(=O)C(C)C(=O)C(C)C(OC2OC(C)CC(N(C)C)C2O)C(C)(OC)CC(C)C(=O)C(C)C2N(C3CN(Cc4cccc5nc[nH]c45)C3)C(=O)OC12C (centres unmarked) [Example 1.11, 3-descladinosyl-11,12-dideoxy-6-O-methyl-3-oxo-12,11-(oxycarbonyl-(1-((1H-benzoimidazol-7-yl)-methy)-azetidin-3-yl)-imino)-erythromycin A] | <0.06 µg/mL | <0.06 µg/mL | 0.5 µg/mL (≈ 0.627 µM) | <0.06 µg/mL | 4 µg/mL (≈ 5.01 µM)
6 | CCC1OC(=O)C(C)C(=O)C(C)C(OC2OC(C)CC(N(C)C)C2O)C(C)(OC)CC(C)C(=O)C(C)C2N(C3CN(Cc4cccc5nccnc45)C3)C(=O)OC12C (centres unmarked) [Example 1.12, 3-descladinosyl-11,12-dideoxy-6-O-methyl-3-oxo-12,11-(oxycarbonyl-(1-((quinoxalin-8-yl)-methyl)-azetidin-3-yl)-imino)-erythromycin A] | 0.25 µg/mL (≈ 0.309 µM) | <0.06 µg/mL | <0.06 µg/mL | <0.06 µg/mL | 2 µg/mL (≈ 2.47 µM)
7 | CCC1OC(=O)C(C)C(=O)C(C)C(OC2OC(C)CC(N(C)C)C2O)C(C)(OC)CC(C)C(=O)C(C)C2N(C3CN(Cc4cccc5ncoc45)C3)C(=O)OC12C (centres unmarked) [Example 1.13, (benzooxazol-7-yl)methyl] | 0.25 µg/mL (≈ 0.313 µM) | <0.06 µg/mL | 1 µg/mL (≈ 1.25 µM) | 0.12 µg/mL (≈ 0.15 µM) | 64 µg/mL (≈ 80.1 µM)
8 | CCC1OC(=O)C(C)C(=O)C(C)C(OC2OC(C)CC(N(C)C)C2O)C(C)(OC)CC(C)C(=O)C(C)C2N(C3CN(Cc4ccc(C#N)cc4)C3)C(=O)OC12C (centres unmarked) [Example 1.14, 4-cyanobenzyl] | 0.25 µg/mL (≈ 0.319 µM) | <0.06 µg/mL | 0.5 µg/mL (≈ 0.639 µM) | 1 µg/mL (≈ 1.28 µM) | >64.00 µg/mL
9 | CCC1OC(=O)C(C)C(=O)C(C)C(OC2OC(C)CC(N(C)C)C2O)C(C)(OC)CC(C)C(=O)C(C)C2N(C3CN(Cc4cccc(C#N)c4)C3)C(=O)OC12C (centres unmarked) [Example 1.15, 3-cyanobenzyl] | 0.25 µg/mL (≈ 0.319 µM) | <0.06 µg/mL | 0.25 µg/mL (≈ 0.319 µM) | <0.06 µg/mL | >64.00 µg/mL
10 | CCC1OC(=O)C(C)C(=O)C(C)C(OC2OC(C)CC(N(C)C)C2O)C(C)(OC)CC(C)C(=O)C(C)C2N(C3CN(Cc4ccnc5ccccc45)C3)C(=O)OC12C (centres unmarked) [Example 1.16, 3-descladinosyl-11,12-dideoxy-6-O-methyl-3-oxo-12,11-(oxycarbonyl-(1-((quinolin-4-yl)-methyl)-azetidin-3-yl)-imino)-erythromycin A] | 0.5 µg/mL (≈ 0.618 µM) | <0.06 µg/mL | 0.25 µg/mL (≈ 0.309 µM) | <0.06 µg/mL | 4.25 µg/mL (≈ 5.25 µM)
11 | CCC1OC(=O)C(C)C(=O)C(C)C(OC2OC(C)CC(N(C)C)C2O)C(C)(OC)CC(C)C(=O)C(C)C2N(C3CN(Cc4cnc5ncccc5c4)C3)C(=O)OC12C (centres unmarked) [Example 1.17, (1,8-naphthyridin-3-yl)methyl] | 0.12 µg/mL (≈ 0.148 µM) | <0.06 µg/mL | 0.25 µg/mL (≈ 0.309 µM) | <0.06 µg/mL | >64.00 µg/mL
12 | CCC1OC(=O)C(C)C(=O)C(C)C(OC2OC(C)CC(N(C)C)C2O)C(C)(OC)CC(C)C(=O)C(C)C2N(C3CN(Cc4ccn[nH]4)C3)C(=O)OC12C (centres unmarked) [Example 1.18, (1H-pyrazol-5-yl)methyl] | 0.25 µg/mL (≈ 0.334 µM) | <0.06 µg/mL | 2 µg/mL (≈ 2.67 µM) | 1 µg/mL (≈ 1.34 µM) | >64.00 µg/mL
13 | CCC1OC(=O)C(C)C(=O)C(C)C(OC2OC(C)CC(N(C)C)C2O)C(C)(OC)CC(C)C(=O)C(C)C2N(C3CN(Cc4cn[nH]c4)C3)C(=O)OC12C (centres unmarked) [Example 1.19, (1H-pyrazol-4-yl)methyl] | 0.5 µg/mL (≈ 0.669 µM) | <0.06 µg/mL | 4 µg/mL (≈ 5.35 µM) | 0.12 µg/mL (≈ 0.16 µM) | >64.00 µg/mL
14 | CCC1OC(=O)C(C)C(=O)C(C)C(OC2OC(C)CC(N(C)C)C2O)C(C)(OC)CC(C)C(=O)C(C)C2N(C3CN(Cc4ccnc5ncccc45)C3)C(=O)OC12C (centres unmarked) [Example 1.20, 3-descladinosyl-11,12-dideoxy-6-O-methyl-3-oxo-12,11-(oxycarbonyl-(1-((1,8-naphthyridin-4-yl)-methyl)-azetidin-3-yl)-imino)erythromycin A] | 0.25 µg/mL (≈ 0.309 µM) | <0.06 µg/mL | 0.12 µg/mL (≈ 0.148 µM) | <0.06 µg/mL | 1 µg/mL (≈ 1.23 µM)
15 | CCC1OC(=O)C(C)C(=O)C(C)C(OC2OC(C)CC(N(C)C)C2O)C(C)(OC)CC(C)C(=O)C(C)C2N(C3CN(C(C)c4ccncc4)C3)C(=O)OC12C (stereo not drawn) [Example 1.21, 1R-(pyridin-4-yl)ethyl] | 2 µg/mL (≈ 2.59 µM) | <0.06 µg/mL | 0.5 µg/mL (≈ 0.647 µM) | <0.06 µg/mL | 32 µg/mL (≈ 41.4 µM)
16 | CCC1OC(=O)C(C)C(=O)C(C)C(OC2OC(C)CC(N(C)C)C2O)C(C)(OC)CC(C)C(=O)C(C)C2N(C3CN(C(C)c4ccncc4)C3)C(=O)OC12C (stereo not drawn) [Example 1.22, 1S-(pyridin-4-yl)ethyl] | 16 µg/mL (≈ 20.7 µM) | <0.06 µg/mL | 1 µg/mL (≈ 1.29 µM) | 1 µg/mL (≈ 1.29 µM) | >64.00 µg/mL
17 | CCC1OC(=O)C(C)C(=O)C(C)C(OC2OC(C)CC(N(C)C)C2O)C(C)(OC)CC(C)C(=O)C(C)C2N(C3CN(C(C)c4ccnc5ncccc45)C3)C(=O)OC12C (stereo not drawn) [Example 1.23, 3-descladinosyl-11,12-dideoxy-6-O-methyl-3-oxo-12,11-(oxycarbonyl-(1-(1S-(1,8-naphthyridin4-yl)-ethyl)-azetidin-3-yl)-imino)-erythromycin A] | 0.5 µg/mL (≈ 0.607 µM) | <0.06 µg/mL | 0.25 µg/mL (≈ 0.303 µM) | <0.06 µg/mL | 16 µg/mL (≈ 19.4 µM)
18 | CCC1OC(=O)C(C)C(=O)C(C)C(OC2OC(C)CC(N(C)C)C2O)C(C)(OC)CC(C)C(=O)C(C)C2N(C3CN(Cc4ccnc5nccnc45)C3)C(=O)OC12C (centres unmarked) [Example 1.24, 3-descladinosyl-11,12-dideoxy-6-O-methyl-3-oxo-12,11-(oxycarbonyl-(1-((pyrido[2,3-b]pyrazin-4-yl)-methy)-azetidin-3-yl)-imino)-erythromycin A] | 1 µg/mL (≈ 1.23 µM) | <0.06 µg/mL | 0.25 µg/mL (≈ 0.308 µM) | <0.06 µg/mL | 4 µg/mL (≈ 4.93 µM)
19 | CC[C@H]1OC(=O)[C@H](C)C(=O)[C@H](C)[C@@H](O[C@@H]2O[C@H](C)C[C@H](N(C)C)[C@H]2O)[C@](C)(OC)C[C@@H](C)C(=O)[C@H](C)[C@H]2N(C3CN([C@H](C)c4ccnc5ncccc45)C3)C(=O)O[C@]12C [Example 1.25, 3-descladinosyl-11,12-dideoxy-6-O-methyl-3-oxo-12,11-(oxycarbonyl-(1-(1R-(1,8-naphthyridin4-yl)-ethyl)-azetidin-3-yl)-imino)-erythromycin A] | 0.5 µg/mL (≈ 0.607 µM) | <0.06 µg/mL | 0.25 µg/mL (≈ 0.303 µM) | <0.06 µg/mL | 1 µg/mL (≈ 1.21 µM)
